Calls of active or inactive are those of the source. No cut-off for these calls is given here.
Legend:
[1] = Cytotoxicity against human DU145 cells assessed as cell growth inhibition after 48 hrs by MTT assay; assay type: functional, cell-based; settings: DU-145, 48 h
[2] = test system: HeLa; experiment: Cytotoxicity against human HeLa cells assessed as cell growth inhibition after 48 hrs by MTT assay; assay type: functional, cell-based
[3] = test system: MDA-MB-231; experiment: Cytotoxicity against human MDA-MB-231 cells assessed as cell growth inhibition after 48 hrs by MTT assay; assay type: functional, cell-based; settings: MDA-MB-231, 48 h
[4] = test system: A549; experiment: Cytotoxicity against human A549 cells assessed as cell growth inhibition after 48 hrs by MTT assay; assay type: functional, cell-based; settings: A549, 48 h
[5] = test system: HT-29; experiment: Cytotoxicity against human HT-29 cells assessed as cell growth inhibition after 48 hrs by MTT assay; assay type: functional, cell-based; settings: HT-29, 48 h
[6] = test system: DU-145; experiment: Induction of apoptosis in human DU145 cells assessed as viable cells at 2 uM after 48 hrs by annexin V-FITC/PI staining based flow cytometry (reference value: 95.57 %); assay type: functional; settings: DU-145, 48 h, read-out: Activity
[7] = Cell cycle arrest in human DU145 cells assessed as accumulation at G0/G1 phase at 2 uM after 48 hrs by propidium iodide staining based flow cytometry (reference value: 81.67 %); assay type: functional; settings: DU-145
[8] = test system: DU-145; experiment: Change in mitochondrial membrane potential in human DU145 cells at 1 uM after 48 hrs by JC-1 staining based flow cytometry (reference value: 95.6%); assay type: functional
[9] = test system: DU-145; experiment: Induction of apoptosis in human DU145 cells assessed as viable cells at 1 uM after 48 hrs by annexin V-FITC/PI staining based flow cytometry (reference value: 95.57 %); assay type: functional; settings: DU-145, 48 h, read-out: Activity
[10] = Cell cycle arrest in human DU145 cells assessed as accumulation at S phase at 2 uM after 48 hrs by propidium iodide staining based flow cytometry (reference value: 1.59 %); assay type: functional; settings: DU-145
[11] = test system: DU-145; experiment: Induction of apoptosis in human DU145 cells assessed as late apoptotic cells at 1 uM after 48 hrs by annexin V-FITC/PI staining based flow cytometry (reference value: 1.63 %); assay type: functional
[12] = Cell cycle arrest in human DU145 cells assessed as accumulation at G0/G1 phase at 1 uM after 48 hrs by propidium iodide staining based flow cytometry (reference value: 81.67 %); assay type: functional; settings: DU-145
[13] = test system: DU-145; experiment: Induction of apoptosis in human DU145 cells assessed as necrotic cells at 2 uM after 48 hrs by annexin V-FITC/PI staining based flow cytometry (reference value: 0.67 %); assay type: functional
[14] = test system: DU-145; experiment: Induction of apoptosis in human DU145 cells at assessed as early apoptotic cells 1 uM after 48 hrs by annexin V-FITC/PI staining based flow cytometry (reference value: 2.13 %); assay type: functional
[15] = Cell cycle arrest in human DU145 cells assessed as accumulation at G2/M phase at 2 uM after 48 hrs by propidium iodide staining based flow cytometry (reference value: 5.96 %); assay type: functional; settings: DU-145
[16] = Down regulation of CDK4 expression in human DU145 cells at 1 to 2 uM after 48 hrs by Western blot analysis; assay type: functional, cell-based; settings: DU-145
[17] = Cell cycle arrest in human DU145 cells assessed as accumulation at sub G1 phase at 1 uM after 48 hrs by propidium iodide staining based flow cytometry (reference value: 8.20 %); assay type: functional; settings: DU-145
[18] = Up regulation of Cip1/p21 expression in human DU145 cells at 1 to 2 uM after 48 hrs by Western blot analysis; assay type: functional, cell-based; settings: DU-145
[19] = Cell cycle arrest in human DU145 cells assessed as accumulation at G2/M phase at 1 uM after 48 hrs by propidium iodide staining based flow cytometry (reference value: 5.96 %); assay type: functional; settings: DU-145
[20] = Cell cycle arrest in human DU145 cells assessed as accumulation at sub G1 phase at 2 uM after 48 hrs by propidium iodide staining based flow cytometry (reference value: 8.20 %); assay type: functional; settings: DU-145
[21] = Cell cycle arrest in human DU145 cells assessed as accumulation at S phase at 1 uM after 48 hrs by propidium iodide staining based flow cytometry (reference value: 1.59 %); assay type: functional; settings: DU-145
[22] = Up regulation of Kip1/p27 expression in human DU145 cells at 1 to 2 uM after 48 hrs by Western blot analysis; assay type: functional, cell-based; settings: DU-145
[23] = test system: DU-145; experiment: Induction of apoptosis in human DU145 cells assessed as necrotic cells at 1 uM after 48 hrs by annexin V-FITC/PI staining based flow cytometry (reference value: 0.67 %); assay type: functional
[24] = test system: DU-145; experiment: Induction of apoptosis in human DU145 cells assessed as late apoptotic cells at 2 uM after 48 hrs by annexin V-FITC/PI staining based flow cytometry (reference value: 1.63 %); assay type: functional
[25] = test system: DU-145; experiment: Change in mitochondrial membrane potential in human DU145 cells at 2 uM after 48 hrs by JC-1 staining based flow cytometry (reference value: 95.6%); assay type: functional
[26] = test system: DU-145; experiment: Induction of apoptosis in human DU145 cells assessed as early apoptotic cells at 2 uM after 48 hrs by annexin V-FITC/PI staining based flow cytometry (reference value: 2.13 %); assay type: functional

Molecule `O=C1N(Cc2ccccc2)c2ccccc2C12Nc1ccccc1-n1cccc12` (stereo not given) has an IC50 [1] of 13.2 µM, an IC50 [2] of 20 µM and an IC50 [3] of 26.2 µM. The IC50 [4] was 17 µM and the IC50 [5] was 17.4 µM.

For `O=C1Nc2ccc([N+](=O)[O-])cc2C12Nc1ccccc1-n1cccc12` (stereo not given), the IC50 [1] was 22.7 µM, the IC50 [2] was 12.9 µM and the IC50 [3] was 17.4 µM. For the same molecule, the IC50 [4] was 16.1 µM and the IC50 [5] was 15.6 µM.

With `COc1ccc2c(c1)C1(Nc3ccccc3-n3cccc31)C(=O)N2` (stereo not given) the IC50 [1] was 11 µM, the IC50 [2] was 14.8 µM and the IC50 [3] was 15.7 µM. It also gave an IC50 [4] of 13.8 µM and an IC50 [5] of 14.7 µM.

In the case of `O=C1N(Cc2ccc3c(c2)OCO3)c2ccc(Cl)cc2C12Nc1ccccc1-n1cccc12` (stereo not given), the viability at 2 µM [6] is reported as 55%, the Activity [7] is reported as 58.8% and the Activity [8] is reported as 87.7%. For the same molecule, the IC50 [1] was 1.16 µM, the viability at 1 µM [9] was 60.6% and the IC50 [2] was 2.45 µM. The Activity [10] was 2.94%, the Activity [11] was 15.42% and the Activity [12] was 85.2%. For the same molecule, the Activity [13] was 1.63%, the IC50 [3] was 2.34 µM and the Activity [14] was 21.95%. The Activity [15] was 4.46%, the Activity [16] was “Active” and the Activity [17] was 6.98%. For the same molecule, the Activity [18] was “Active”, the Activity [19] was 4.2% and the IC50 [4] was 2.11 µM. The Activity [20] was 29.1%, the Activity [21] was 1.21% and the Activity [22] was “Active”. The Activity [23] was 2%, the Activity [24] was 16.03% and the Activity [25] was 72.2%. For the same molecule, the Activity [26] was 27.36% and the IC50 [5] was 1.63 µM.

In the case of `COc1cccc2c1C(=O)c1c(O)c3c(c(O)c1C2=O)C[C@@](O)(C(=O)CO)C[C@@H]3O[C@H]1C[C@H](N)[C@H](O)[C@H](C)O1` [DOXORUBICIN], the IC50 [1] is reported as 1.82 µM, the IC50 [3] is reported as 1.67 µM and the IC50 [4] is reported as 1.06 µM. It also gave an IC50 [5] of 1.16 µM.

`O=C1Nc2ccccc2C12Nc1ccccc1-n1cccc12` (stereo not given) gave an IC50 [1] of 6.03 µM, an IC50 [2] of 4.57 µM and an IC50 [3] of 8.84 µM. It also gave an IC50 [4] of 7.1 µM and an IC50 [5] of 4.11 µM.

In the case of `O=C1Nc2ccc(I)cc2C12Nc1ccccc1-n1cccc12` (stereo not given), the IC50 [1] is reported as 15.7 µM, the IC50 [2] is reported as 16.7 µM and the IC50 [3] is reported as 27.1 µM. The IC50 [4] was 22.4 µM and the IC50 [5] was 19 µM.

`O=C1Nc2ccc(Br)cc2C12Nc1ccccc1-n1cccc12` (stereo not given) showed an IC50 [1] of 3.98 µM, an IC50 [2] of 16.4 µM and an IC50 [3] of 29.7 µM. For the same molecule, the IC50 [4] was 4.9 µM and the IC50 [5] was 17 µM.

Work on `O=C1N(Cc2ccc3c(c2)OCO3)c2ccccc2C12Nc1ccccc1-n1cccc12` (stereo not given) yielded an IC50 [1] of 3.98 µM, an IC50 [2] of 4.53 µM and an IC50 [3] of 30 µM. It also gave an IC50 [4] of 7.59 µM and an IC50 [5] of 15.1 µM.

With `O=C1Nc2ccc(Cl)cc2C12Nc1ccccc1-n1cccc12` (stereo not given) the IC50 [1] was 4.79 µM, the IC50 [2] was 4.88 µM and the IC50 [3] was 26.3 µM. It also gave an IC50 [4] of 4.81 µM and an IC50 [5] of 11 µM.

`O=C1Nc2c(F)cccc2C12Nc1ccccc1-n1cccc12` (stereo not given) showed an IC50 [1] of 12.7 µM, an IC50 [2] of 12.4 µM and an IC50 [3] of 15.9 µM. It also gave an IC50 [4] of 11.3 µM and an IC50 [5] of 12.7 µM.

`O=C1N(Cc2ccccc2)c2ccc(Cl)cc2C12Nc1ccccc1-n1cccc12` (stereo not given) showed an IC50 [1] of 4.71 µM, an IC50 [2] of 4.86 µM and an IC50 [3] of 26.6 µM. It also gave an IC50 [4] of 4.79 µM and an IC50 [5] of 19 µM.

`O=C1N(Cc2ccccc2)c2ccc(Br)cc2C12Nc1ccccc1-n1cccc12` (stereo not given) gave an IC50 [1] of 11.2 µM, an IC50 [2] of 21 µM and an IC50 [3] of 23.7 µM. The IC50 [4] was 16.6 µM and the IC50 [5] was 18.1 µM.

For `Cc1ccc2c(c1)C1(Nc3ccccc3-n3cccc31)C(=O)N2` (stereo not given), the IC50 [1] was 12.5 µM, the IC50 [2] was 11.2 µM and the IC50 [3] was 22.1 µM. It also gave an IC50 [4] of 13.5 µM and an IC50 [5] of 14.5 µM.

With `O=C1Nc2ccc(F)cc2C12Nc1ccccc1-n1cccc12` (stereo not given) the IC50 [1] was 12.7 µM, the IC50 [2] was 15.1 µM and the IC50 [3] was 31.4 µM. It also gave an IC50 [4] of 23.4 µM and an IC50 [5] of 15.8 µM.
